According to patent publication US20240316140A1 (UBIO INC., priority 2021, published 2024):
Residues, ends and D or L forms follow the SMILES beside them.

Columns and labels:
HepG2 hepatoma cell line = assay: HepG2 cytotoxicity evaluation of peptide (MTT); type: cell-based, human; settings: tested 0.01 to 1000 ug/ml, 24 hours, non-toxic concentration
Procedure: After culturing a HepG2 hepatoma cell line, three kinds of synthetic peptides were added by concentration, and MTT (methylthiazol tetrazolium bromide, Sigma Aldrich) was carried out to confirm cell viability. An appropriate amount (1×10^5/well) of cells was seeded on each well in a 24-well plate (BD, Falcon) to treat a sample according to the concentration, and cell viability was confirmed after cultivation for 24 hours in a 37° C. incubator.

HepG2 cells = assay: Hepatocyte protection ability of peptide against t-BHP damage (MTT); type: cell-based, human; settings: 10 mM t-BHP
Procedure: HepG2 cells, which are hepatoma cell lines, were dispensed in the 24-well plate at 1×10^5/well and cultured. Thereafter, in order to confirm hepatocyte protection ability of three kinds of synthetic peptides, the peptides were treated by concentration, cultured for 23 hours, and then 10 mM of t-BHP was treated for damage to the hepatocytes to culture the same for 90 minutes.

Row | Compound | Test Concentration Setting, Cytotoxicity (HepG2) (HepG2 hepatoma cell line) | Hepatocyte Protection Ability (HepG2 cells; 0.1 ug/ml peptide) [%] | Hepatocyte Protection Ability (HepG2 cells; 1 ug/ml peptide) [%] | Hepatocyte Protection Ability (HepG2 cells; 10 ug/ml peptide) [%]
1 | CC(C)[C@H](NC(=O)[C@H](CO)NC(=O)[C@@H]1CCCN1C(=O)[C@H](CC(N)=O)NC(=O)[C@H](Cc1ccccc1)NC(=O)[C@H](CC(=O)O)NC(=O)[C@@H](N)CC(=O)O)C(=O)N[C@@H](Cc1c[nH]cn1)C(=O)O [PEP-3] (H-DDFNPSVH-OH; N-terminus and C-terminus assumed) | less than 10 ug/ml | 9 | 20 | 20
2 | CC(C)[C@H](N)C(=O)N[C@H](C(=O)N[C@H](C(=O)N[C@@H](CCC(=O)O)C(=O)O)C(C)C)C(C)C [PEP-1, VVVE] (H-VVVE-OH; N-terminus and C-terminus assumed) | less than 10 ug/ml |  |  | 7
3 | CC(C)C[C@H](NC(=O)CNC(=O)[C@@H](N)CC(=O)O)C(=O)N[C@@H](Cc1c[nH]cn1)C(=O)N[C@@H](CC(C)C)C(=O)N[C@@H](CCCNC(=N)N)C(=O)O [PEP-2, DGLHLR] (H-DGLHLR-OH; N-terminus and C-terminus assumed) | less than 10 ug/ml | 15 | 20 | 26
